Patent US20040209775A1, “Herbicidal composition” (priority 2001, published 2004)

Assays:
Experiment in all cases: Post-emergence test, greenhouse
Format in all cases: in vivo
[1] = test system: Veronica persica; conditions: I1 500, dicamba 30, mixture 500 + 30 g a.i./ha, evaluation 20 days after application
Experimental: (§1) The herbicidal action to be expected We for a given combination of two herbicides can be calculated as follows (see COLBY, S. R., “Calculating synergistic and antagonistic response of herbicide combinations”, Weeds 15, pages 20-22, 1967): […] Post-emergence application of mixtures of a herbicide of formula I wherein R is CH3; […] R2 is 3-acetonitrile; and R3 and R4 are hydrogen (=herbicide no. […] The test plants are grown to the 2- to 3-leaf stage in plastics pots under greenhouse conditions. A standard soil is used as cultivation substrate. At the 2- to 3-leaf stage, the herbicides are applied to the test plants on their own and as a mixture. The application is carried out using an aqueous suspension of the test compounds in 500 litres of water/ha. The rates of application depend on the optimum doses ascertained under field conditions and greenhouse conditions.

[2] = test system: Viola tricolor; conditions: I1 500, dicamba 30, mixture 500 + 30 g a.i./ha, evaluation 20 days after application
Experimental: as §1

[3] = test system: Raphnus raphanistrum; conditions: I1 500, dicamba 30, mixture 500 + 30 g a.i./ha, evaluation 20 days after application
Experimental: as §1

[4] = test system: winter barley; conditions: I1 500, dicamba 30, mixture 500 + 30 g a.i./ha, evaluation 20 days after application
Experimental: as §1

[5] = test system: Stellaria media; conditions: I1 500, dicamba 30, mixture 500 + 30 g a.i./ha, evaluation 20 days after application
Experimental: as §1

[6] = test system: Galium aparine; conditions: evaluation 20 days after application
Description: (§2) The herbicidal action to be expected We for a given combination of two herbicides can be calculated as follows (see COLBY, S. R., “Calculating synergistic and antagonistic response of herbicide combinations”, Weeds 15, pages 20-22, 1967):
(§3) Post-emergence application of mixtures of a herbicide of formula I wherein R is CH3; R1 is 4-fluorine; R2 is 3-acetonitrile; and R3 and R4 are hydrogen (=herbicide no. 11) with the co-herbicide dicamba at 500 g/ha and 30 g/ha, respectively, in Table B1, and of a herbicide of formula I wherein R is CH3; R1 is 4-fluorine; R2 is 3-acetonitrile; and R3 and R4 are hydrogen (=herbicide no. I1) with the co-herbicide triasulfuron at 250 g/ha and 3.75 g.ha, respectively, in Table B2.
(§4) The test plants are grown to the 2- to 3-leaf stage in plastics pots under greenhouse conditions. A standard soil is used as cultivation substrate. At the 2- to 3-leaf stage, the herbicides are applied to the test plants on their own and as a mixture. The application is carried out using an aqueous suspension of the test compounds in 500 litres of water/ha. The rates of application depend on the optimum doses ascertained under field conditions and greenhouse conditions. […]

[7] = test system: winter wheat
Description: as §2, §3, §4

[8] = test system: Capsella bursa-pastoris; conditions: I1 250, triasulfuron 3.5, mixture 250 + 3.75 g a.i./ha, evaluation 20 days after application
Description: as §2, §3, §4

[9] = test system: Lamium purpureum; conditions: I1 250, triasulfuron 3.5, mixture 250 + 3.75 g a.i./ha, evaluation 20 days after application
Description: as §2, §3, §4

[10] = test system: Matricaria chamomilla; conditions: I1 250, triasulfuron 3.5, mixture 250 + 3.75 g a.i./ha, evaluation 20 days after application
Description: as §2, §3, §4

[11] = test system: Kochia scoparia; conditions: I1 250, triasulfuron 3.5, mixture 250 + 3.75 g a.i./ha, evaluation 20 days after application
Description: as §2, §3, §4

[12] = test system: hard wheat; conditions: I1 250, triasulfuron 3.5, mixture 250 + 3.75 g a.i./ha, evaluation 10 days after application
Description: as §2, §3, §4

[13] = test system: Polygonum convolvulus; conditions: I1 250, triasulfuron 3.5, mixture 250 + 3.75 g a.i./ha, evaluation 20 days after application
Description: as §2, §3, §4

Row | Structure (SMILES) | % action, Veronica persica [1] | % action, Viola tric. [2] | % action, Raphnus raphan. [3] | % action, Barley [4] | % action, Stellaria media [5] | % action, Galium aparine ([6]; I1 500, dicamba 30, mixture 500 + 30 g a.i./ha) | % action, Wheat ([7]; I1 500, dicamba 30, mixture 500 + 30 g a.i./ha, evaluation 20 days after application, 100%=plant has died) | % action, Caps. bursa-past. [8] | % action, Lamium purpur. [9] | % action, Matr. cham. [10] | % action, Gal. apar. ([6]; I1 250, triasulfuron 3.5, mixture 250 + 3.75 g a.i./ha) | % action, Kochia scop. [11] | % action, H. wheat [12] | % action, Polyg. conv. [13] | % action, W. wheat ([7]; I1 250, triasulfuron 3.5, mixture 250 + 3.75 g a.i./ha, evaluation 10 days after application)
1 | COc1c(Cl)ccc(Cl)c1C(=O)O [dicamba] | 20% | 0% | 20% | 10% | 20% | 40% | 0% |  |  |  |  |  |  |  | 
2 | COc1nc(C)nc(NC(=O)NS(=O)(=O)c2ccccc2OCCCl)n1 [triasulfuron] |  |  |  |  |  |  |  | 98% | 90% | 95% | 70% | 95% | 0% | 80% | 0%
